Tests used:
Type in all cases: in vivo
Galium spurium = test: Test Example 5: herbicidal effect by foliage application, plastic box (symbol Q); conditions: 320 g/ha, 3 weeks after application
Method in brief: (§1)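 Sowing in sterilized diluvial soil, 14 days' greenhouse growth at 25° C. to 30° C., then uniform small-sprayer foliar application of aqueous emulsion dilution; plants scored three weeks afterwards.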

corn = test: Test Example 5: effect on crop by foliage application, plastic box (symbol c); conditions: 320 g/ha, 3 weeks after application
Method in brief: (§2)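 In a plastic box 7 cm deep filled with sterilized diluvial soil, seeds of crops and weeds such as Digitaria ciliaris, Avena fatua and Amaranthus retroflexus are sown in spots and covered with about 1.5 cm of soil before greenhouse growth at 25–30° C.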

soybean = test: Test Example 5: effect on crop by foliage application, plastic box (symbol d); conditions: 320 g/ha, 3 weeks after application
Method in brief: as §2

Scirpus juncoides = test: Test Example 2: herbicidal activity, application during weed generation in submerged conditions (symbol B); conditions: Table 23; application herbicide amount 320 g/ha; grade 0-5 by criteria of Test Example 1
Method in brief: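 Submerged alluvial soil (4 cm) sown with mixed seed; greenhouse 25–30° C. 1–2 leaf: diluted emulsion onto water surface, preset dose. Visual score, 3 wk.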

Veronica persica = test: Test Example 4: herbicidal effect by soil treatment (symbol R); conditions: application herbicide amount 320 g/ha
Method in brief: (§3)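 Seeds were sown in sterilized diluvial soil, covered with about 1.5 cm of soil, and the soil surface was sprayed with a water-diluted emulsion of the compound at a predetermined rate. Plants grew in a greenhouse at 25° C. to 30° C.; effects were scored visually 3 weeks after application.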

Alopecurus myosuroides [1] = test: Test Example 4: herbicidal effect by soil treatment (symbol J); conditions: application herbicide amount 320 g/ha
Method in brief: as §3

wheat [2] = test: Test Example 4: effect on crop by soil treatment (symbol e); conditions: application herbicide amount 320 g/ha
Method in brief: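 Crop seeds, among them rice, wheat, beet and rapeseed, were sown in sterilized diluvial soil and covered with about 1.5 cm of soil. Boxes were kept in a greenhouse at 25° C. to 30° C. for plant growth.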

Digitaria ciliaris = test: Test Example 5: herbicidal effect by foliage application, plastic box (symbol F); conditions: 320 g/ha, 3 weeks after application
Method in brief: as §1

Avena fatua = test: Test Example 4: herbicidal effect by soil treatment (symbol I); conditions: application herbicide amount 320 g/ha
Method in brief: as §3

wheat [3] = test: Test Example 5: effect on crop by foliage application, plastic box (symbol e); conditions: 320 g/ha, 3 weeks after application
Method in brief: as §2

Leptochloa chinensis = test: Test Example 3: herbicidal effect by foliage application, Wagner pot (symbol D); conditions: application herbicide amount 320 g/ha, Table 24
Method in brief: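 Steps: fill pot with alluvial soil; add water to 0.1–0.5 cm depth; sow weed and rice seed; grow 14 days at 25–30 °C; spray diluted emulsion over the leaves; rate effect after 3 weeks.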

Lolium multiflorum Lam. = test: Test Example 5: herbicidal effect by foliage application, plastic box (symbol K); conditions: 320 g/ha, 3 weeks after application
Method in brief: as §1

transplanted rice plant = test: Test Example 1: effect on crop, application before weed generation in submerged conditions (symbol a); conditions: application herbicide amount 320 g/ha
Method in brief: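 Alluvial soil pots flooded to 4 cm water, sown with Echinochloa oryzacola, Scirpus juncoides and Monochoria vaginalis, then transplanted with 2.5 leaf stage rice seedlings; pre-emergence application. Greenhouse 25° C. to 30° C.; scored 0–5 by herbicidal ratio 3 weeks after application.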

Alopecurus myosuroides [4] = test: Test Example 5: herbicidal effect by foliage application, plastic box (symbol J); conditions: 320 g/ha, 3 weeks after application
Method in brief: as §1

| SMILES | Q: Galium spurium, herbicidal effect grade (Galium spurium) | c: corn, effect on crop grade (corn) | d: soybean, effect on crop grade (soybean) | Herbicidal effect grade, B: Scirpus juncoides (Scirpus juncoides) | Herbicidal effect grade, R: Veronica persica (Veronica persica) | Herbicidal effect grade, J: Alopecurus myosuroides (Alopecurus myosuroides [1]) | Effect on crop grade, e: wheat (wheat [2]) | F: Digitaria ciliaris, herbicidal effect grade (Digitaria ciliaris) | Herbicidal effect grade, I: Avena fatua (Avena fatua) | e: wheat, effect on crop grade (wheat [3]) | D (Leptochloa chinensis) herbicidal effect grade (Leptochloa chinensis) | K: Lolium multiflorum Lam., herbicidal effect grade (Lolium multiflorum Lam.) | a (transplanted rice plant) effect on crop grade (transplanted rice plant) | J: Alopecurus myosuroides, herbicidal effect grade (Alopecurus myosuroides [4]) |
| --- | --- | --- | --- | --- | --- | --- | --- | --- | --- | --- | --- | --- | --- | --- |
| CC#Cc1cc(C)c(C2=C(O)CC(CC(C)=NOCC(F)(F)F)C2=O)c(C)c1 (stereo not drawn) [9-011] | 1 (Herbicidal ratio of 5% or higher and lower than 20%) | 5 (Herbicidal ratio of 90% or more (almost completely withered)) | 2 (Herbicidal ratio of 20% or higher and lower than 40%) | 5 (Herbicidal ratio of 90% or more (almost completely withered)) | 0 (Herbicidal ratio of 5% or lower (almost no effect)) | 5 (Herbicidal ratio of 90% or more (almost completely withered)) | 4 (Herbicidal ratio of 70% or higher and lower than 90%) | 5 (Herbicidal ratio of 90% or more (almost completely withered)) | 3 (Herbicidal ratio of 40% or higher and lower than 70%) | 5 (Herbicidal ratio of 90% or more (almost completely withered)) | 5 (Herbicidal ratio of 90% or more (almost completely withered)) | 5 (Herbicidal ratio of 90% or more (almost completely withered)) | 5 (Herbicidal ratio of 90% or more (almost completely withered)) | 5 (Herbicidal ratio of 90% or more (almost completely withered)) |
| CC(CC1CC(OC(=O)COc2ccccc2)=C(c2c(C)cc(-n3cc(Cl)cn3)cc2C)C1=O)=NOCC(F)(F)F (stereo not drawn) [9-012] | 4 (Herbicidal ratio of 70% or higher and lower than 90%) | 5 (Herbicidal ratio of 90% or more (almost completely withered)) | 1 (Herbicidal ratio of 5% or higher and lower than 20%) | 4 (Herbicidal ratio of 70% or higher and lower than 90%) | 2 (Herbicidal ratio of 20% or higher and lower than 40%) | 5 (Herbicidal ratio of 90% or more (almost completely withered)) | 0 (Herbicidal ratio of 5% or lower (almost no effect)) | 5 (Herbicidal ratio of 90% or more (almost completely withered)) | 0 (Herbicidal ratio of 5% or lower (almost no effect)) | 2 (Herbicidal ratio of 20% or higher and lower than 40%) | 5 (Herbicidal ratio of 90% or more (almost completely withered)) | 5 (Herbicidal ratio of 90% or more (almost completely withered)) | 5 (Herbicidal ratio of 90% or more (almost completely withered)) | 5 (Herbicidal ratio of 90% or more (almost completely withered)) |
| Cc1cc(-n2cc(Cl)cn2)cc(C)c1C1=C(O)CC(CC(=NOCC(F)(F)F)C(C)C)C1=O (stereo not drawn) [9-014] | 0 (Herbicidal ratio of 5% or lower (almost no effect)) | 5 (Herbicidal ratio of 90% or more (almost completely withered)) | 0 (Herbicidal ratio of 5% or lower (almost no effect)) | 0 (Herbicidal ratio of 5% or lower (almost no effect)) | 0 (Herbicidal ratio of 5% or lower (almost no effect)) | 0 (Herbicidal ratio of 5% or lower (almost no effect)) | 0 (Herbicidal ratio of 5% or lower (almost no effect)) | 5 (Herbicidal ratio of 90% or more (almost completely withered)) | 0 (Herbicidal ratio of 5% or lower (almost no effect)) | 1 (Herbicidal ratio of 5% or higher and lower than 20%) | 5 (Herbicidal ratio of 90% or more (almost completely withered)) | 4 (Herbicidal ratio of 70% or higher and lower than 90%) | 5 (Herbicidal ratio of 90% or more (almost completely withered)) | 4 (Herbicidal ratio of 70% or higher and lower than 90%) |
| CC#Cc1cc(C)c(C2=C(O)CC(CC(=NOCC(F)(F)F)C(C)C)C2=O)c(C)c1 (stereo not drawn) [9-015] | 2 (Herbicidal ratio of 20% or higher and lower than 40%) | 5 (Herbicidal ratio of 90% or more (almost completely withered)) | 0 (Herbicidal ratio of 5% or lower (almost no effect)) | 3 (Herbicidal ratio of 40% or higher and lower than 70%) | 0 (Herbicidal ratio of 5% or lower (almost no effect)) | 5 (Herbicidal ratio of 90% or more (almost completely withered)) | 3 (Herbicidal ratio of 40% or higher and lower than 70%) | 5 (Herbicidal ratio of 90% or more (almost completely withered)) | 1 (Herbicidal ratio of 5% or higher and lower than 20%) | 3 (Herbicidal ratio of 40% or higher and lower than 70%) | 5 (Herbicidal ratio of 90% or more (almost completely withered)) | 5 (Herbicidal ratio of 90% or more (almost completely withered)) | 5 (Herbicidal ratio of 90% or more (almost completely withered)) | 5 (Herbicidal ratio of 90% or more (almost completely withered)) |
| COCCON=C(C)CC1CC(O)=C(c2c(C)cc(-n3cc(Cl)cn3)cc2C)C1=O (stereo not drawn) [9-016] | 2 (Herbicidal ratio of 20% or higher and lower than 40%) | 5 (Herbicidal ratio of 90% or more (almost completely withered)) | 3 (Herbicidal ratio of 40% or higher and lower than 70%) | 4 (Herbicidal ratio of 70% or higher and lower than 90%) | 0 (Herbicidal ratio of 5% or lower (almost no effect)) | 5 (Herbicidal ratio of 90% or more (almost completely withered)) | 0 (Herbicidal ratio of 5% or lower (almost no effect)) | 5 (Herbicidal ratio of 90% or more (almost completely withered)) | 2 (Herbicidal ratio of 20% or higher and lower than 40%) | 3 (Herbicidal ratio of 40% or higher and lower than 70%) | 5 (Herbicidal ratio of 90% or more (almost completely withered)) | 5 (Herbicidal ratio of 90% or more (almost completely withered)) | 5 (Herbicidal ratio of 90% or more (almost completely withered)) | 5 (Herbicidal ratio of 90% or more (almost completely withered)) |
| COCCON=C(C)CC1CC(O)=C(c2c(C)cc(Br)cc2C)C1=O (stereo not drawn) [9-017] | 0 (Herbicidal ratio of 5% or lower (almost no effect)) | 5 (Herbicidal ratio of 90% or more (almost completely withered)) | 0 (Herbicidal ratio of 5% or lower (almost no effect)) | 0 (Herbicidal ratio of 5% or lower (almost no effect)) | 0 (Herbicidal ratio of 5% or lower (almost no effect)) | 0 (Herbicidal ratio of 5% or lower (almost no effect)) | 0 (Herbicidal ratio of 5% or lower (almost no effect)) | 4 (Herbicidal ratio of 70% or higher and lower than 90%) | 0 (Herbicidal ratio of 5% or lower (almost no effect)) | 3 (Herbicidal ratio of 40% or higher and lower than 70%) | 5 (Herbicidal ratio of 90% or more (almost completely withered)) | 5 (Herbicidal ratio of 90% or more (almost completely withered)) | 4 (Herbicidal ratio of 70% or higher and lower than 90%) | 3 (Herbicidal ratio of 40% or higher and lower than 70%) |
